Results reported in PubChem BioAssay AID2060621 (Molecular Pharmacology Branch, DTP, NCI, 2025).
Where “and” joins values, the source holds several entries; their conditions need not be identical. Equal entries are not always repeated.

System: 324938-238-R-J1-PDC complex spheroids viability
Assay: Anticancer human tumor 324938-238-R-J1-PDC patient-derived bladder carcinoma cell line growth inhibition [CLK]
Settings: for viability, T/C: stronger effect = lower value
Outline: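 Multi-cell-type spheroids combined patient-derived tumor cells with HUVEC endothelial cells and human mesenchymal stem cells. Paired agents were dosed in half-log steps down from about clinical Cmax, or from 10 microM where Cmax was unknown.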

[1] = curve of first compound, second compound 0.0316 µM
[2] = curve of first compound, second compound 0.1 µM
[3] = curve of first compound, second compound 0.316 µM
[4] = curve of first compound, second compound 1 µM
[5] = curve of first compound, second compound 3.16 µM
[6] = curve of first compound, second compound 10 µM
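Further: viability read after seven days of drug exposure.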
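Wherever viability, T/C is given: 100% = DMSO vehicle control wells.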

`C=CC(=O)Nc1cc(Nc2nccc(-c3cn(C)c4ccccc34)n2)c(OC)cc1N(C)CCN(C)C` + CNC(=O)c1ccc(Nc2nc(OC3CCCC3)c3c(-c4ccc5nc(C)oc5c4)c[nH]c3n2)c(OC)c1 was tested, and the IC50 [1] was 39.6 nM, the IC50 [2] was less than 0.949 nM and the IC50 [3] was less than 0.949 nM. The IC50 [4] was less than 0.949 nM, the IC50 [5] was less than 0.949 nM and the IC50 [6] was less than 0.949 nM. For the same molecule, the viability, T/C (second compound 0.0316 µM, first compound 0.000949 µM) was 92.5%, the viability, T/C (second compound 0.0316 µM, first compound 0.003 µM) was 87.2% and the viability, T/C (second compound 0.0316 µM, first compound 0.00949 µM) was 74.5%. For the same molecule, the viability, T/C (second compound 0.0316 µM, first compound 0.03 µM) was 52.8%, the viability, T/C (second compound 0.0316 µM, first compound 0.0949 µM) was 38.6% and the viability, T/C (second compound 0.0316 µM, first compound 0.3 µM) was 27.7%. For the same molecule, the viability, T/C (second compound 0.1 µM, first compound 0.000949 µM) was 30.5%, the viability, T/C (second compound 0.1 µM, first compound 0.003 µM) was 24.8% and the viability, T/C (second compound 0.1 µM, first compound 0.00949 µM) was 21.4%. It also gave a viability, T/C (second compound 0.1 µM, first compound 0.03 µM) of 20.3%, a viability, T/C (second compound 0.1 µM, first compound 0.0949 µM) of 15.6% and a viability, T/C (second compound 0.1 µM, first compound 0.3 µM) of 14.1%. For the same molecule, the viability, T/C (second compound 0.316 µM, first compound 0.000949 µM) was 19%, the viability, T/C (second compound 0.316 µM, first compound 0.003 µM) was 16.8% and the viability, T/C (second compound 0.316 µM, first compound 0.00949 µM) was 19.2%. For the same molecule, the viability, T/C (second compound 0.316 µM, first compound 0.03 µM) was 16.2%, the viability, T/C (second compound 0.316 µM, first compound 0.0949 µM) was 13.4% and the viability, T/C (second compound 0.316 µM, first compound 0.3 µM) was 12.9%. It also gave a viability, T/C (second compound 1 µM, first compound 0.000949 µM) of 16.8%, a viability, T/C (second compound 1 µM, first compound 0.003 µM) of 15.5% and a viability, T/C (second compound 1 µM, first compound 0.00949 µM) of 16.8%. It also gave a viability, T/C (second compound 1 µM, first compound 0.03 µM) of 11.8%, a viability, T/C (second compound 1 µM, first compound 0.0949 µM) of 11.1% and a viability, T/C (second compound 1 µM, first compound 0.3 µM) of 11.5%. It also gave a viability, T/C (second compound 3.16 µM, first compound 0.000949 µM) of 16.8%, a viability, T/C (second compound 3.16 µM, first compound 0.003 µM) of 17.6% and a viability, T/C (second compound 3.16 µM, first compound 0.00949 µM) of 13.1%. It also gave a viability, T/C (second compound 3.16 µM, first compound 0.03 µM) of 14.3%, a viability, T/C (second compound 3.16 µM, first compound 0.0949 µM) of 11.9% and a viability, T/C (second compound 3.16 µM, first compound 0.3 µM) of 11.8%. It also gave a viability, T/C (second compound 10 µM, first compound 0.000949 µM) of 18.1%, a viability, T/C (second compound 10 µM, first compound 0.003 µM) of 17.9% and a viability, T/C (second compound 10 µM, first compound 0.00949 µM) of 14.8%. The viability, T/C (second compound 10 µM, first compound 0.03 µM) was 13.2%, the viability, T/C (second compound 10 µM, first compound 0.0949 µM) was 12.4% and the viability, T/C (second compound 10 µM, first compound 0.3 µM) was 11.5%.
`CC(CO)NC(=O)c1cc(-c2ccc(Cl)cc2)nn(-c2cnn(C)c2)c1=O` (stereo unspecified) + CNC(=O)c1ccc(Nc2nc(OC3CCCC3)c3c(-c4ccc5nc(C)oc5c4)c[nH]c3n2)c(OC)c1 gave an IC50 [1] greater than 10000 nM, an IC50 [2] of less than 31.6 nM and an IC50 [3] of less than 31.6 nM. The IC50 [4] was less than 31.6 nM, the IC50 [5] was less than 31.6 nM and the IC50 [6] was less than 31.6 nM. The viability, T/C (second compound 0.0316 µM, first compound 0.0316 µM) was 82.2%, the viability, T/C (second compound 0.0316 µM, first compound 0.1 µM) was 90.3% and the viability, T/C (second compound 0.0316 µM, first compound 0.316 µM) was 89.1%. The viability, T/C (second compound 0.0316 µM, first compound 1 µM) was 81.1%, the viability, T/C (second compound 0.0316 µM, first compound 3.16 µM) was 66.1% and the viability, T/C (second compound 0.0316 µM, first compound 10 µM) was 50.6%. The viability, T/C (second compound 0.1 µM, first compound 0.0316 µM) was 28.9%, the viability, T/C (second compound 0.1 µM, first compound 0.1 µM) was 33.2% and the viability, T/C (second compound 0.1 µM, first compound 0.316 µM) was 34.6%. For the same molecule, the viability, T/C (second compound 0.1 µM, first compound 1 µM) was 35%, the viability, T/C (second compound 0.1 µM, first compound 3.16 µM) was 29.4% and the viability, T/C (second compound 0.1 µM, first compound 10 µM) was 28%. For the same molecule, the viability, T/C (second compound 0.316 µM, first compound 0.0316 µM) was 19%, the viability, T/C (second compound 0.316 µM, first compound 0.1 µM) was 19.3% and the viability, T/C (second compound 0.316 µM, first compound 0.316 µM) was 21.6%. The viability, T/C (second compound 0.316 µM, first compound 1 µM) was 18.7%, the viability, T/C (second compound 0.316 µM, first compound 3.16 µM) was 19.1% and the viability, T/C (second compound 0.316 µM, first compound 10 µM) was 21.1%. For the same molecule, the viability, T/C (second compound 1 µM, first compound 0.0316 µM) was 16.4%, the viability, T/C (second compound 1 µM, first compound 0.1 µM) was 16% and the viability, T/C (second compound 1 µM, first compound 0.316 µM) was 15.9%. It also gave a viability, T/C (second compound 1 µM, first compound 1 µM) of 16.9%, a viability, T/C (second compound 1 µM, first compound 3.16 µM) of 18.4% and a viability, T/C (second compound 1 µM, first compound 10 µM) of 18.6%. The viability, T/C (second compound 3.16 µM, first compound 0.0316 µM) was 15.9%, the viability, T/C (second compound 3.16 µM, first compound 0.1 µM) was 15.5% and the viability, T/C (second compound 3.16 µM, first compound 0.316 µM) was 15.1%. For the same molecule, the viability, T/C (second compound 3.16 µM, first compound 1 µM) was 16.2%, the viability, T/C (second compound 3.16 µM, first compound 3.16 µM) was 18.1% and the viability, T/C (second compound 3.16 µM, first compound 10 µM) was 17.6%. It also gave a viability, T/C (second compound 10 µM, first compound 0.0316 µM) of 17.3%, a viability, T/C (second compound 10 µM, first compound 0.1 µM) of 16.3% and a viability, T/C (second compound 10 µM, first compound 0.316 µM) of 15.2%. It also gave a viability, T/C (second compound 10 µM, first compound 1 µM) of 16.5%, a viability, T/C (second compound 10 µM, first compound 3.16 µM) of 17% and a viability, T/C (second compound 10 µM, first compound 10 µM) of 15.6%.
In the case of `CC(Nc1ccc2c(c1)OCCn1cc(N3C(=O)OCC3C(F)F)nc1-2)C(N)=O` (stereo unspecified), the viability, T/C (compound 0.0316 µM) is reported as 67.9% and 69%, the viability, T/C (compound 0.1 µM) is reported as 49.2% and 55% and the viability, T/C (compound 0.316 µM) is reported as 32% and 34.8%. The viability, T/C (compound 1 µM) was 25% and 29.9%, the viability, T/C (compound 3.16 µM) was 20.4% and 24.6% and the viability, T/C (compound 10 µM) was 10.8% and 12.4%. For the same molecule, the IC50 (curve of compound) was 91 nM and 128 nM.
